Data as given in patent US20150351390A1, “COMPOSITIONS AND METHODS FOR AUXIN-ANALOG CONJUGATION” (PIONEER HI-BRED INTERNATIONAL, INC., priority 2012, published 2015).

Assays:
[1] = test system: wild-type Col-0 Arabidopsis; assay: Root growth inhibition by 2,4-D, wild-type Arabidopsis; format: in vivo, Arabidopsis thaliana; details: Non transgenic (Col-0)
Description: Seeds of Arabidopsis ecotype Columbia (Col-0) and GH3 transgenic events were surface sterilized with 70% (v/v) ethanol for 5 minutes and 10% (v/v) bleach for 15 minutes. After being washed three times with distilled water, the seeds were incubated at 4° C. for 4 days. The seeds were then germinated on 1× Murashige and Skoog (MS) medium with a pH of 5.7, 3% (w/v) sucrose, and 0.8% (w/v) agar. After incubation for 3.5 days, the seedlings were transferred to the basal medium containing B5 vitamin, 3% (w/v) sucrose, […] MES (pH 5.7), 1.2% (w/v) agar, and filter sterilized auxin herbicides 2,4-D or dicamba was added to the media at 60° C. The concentrations of 2,4-D were 0 μM, 0.1 μM, 0.5 μM, 0.7 μM, and 1.0 μM. The concentrations of dicmaba were 0 μM, 1.0 μM, 5.0 μM, 7.0 μM, and 10 μM. […]
After 6 days on media with various concentrations of 2,4-D or dicamba, the length of the primary root was measured. […]
Transgenic Arabidopsis lines overexpressing SEQ ID NO:3 were generated and evaluated for 2,4-D herbicide response as described in Example 5. […] Root length of 8 plants per transgenic line was measured and the average was compared to untreated seedlings within the same genetic background.

[2] = test system: soybean seedlings; assay: Soybean seedling response to spot infiltrated auxins and conjugates; format: in vivo; details: for 1st trifoliate leaf curl: spot infiltration; for 1st trifoliate leaf curl: key: 0 = no phenotype; +/− = threshold
Description: Conjugate forms of auxinic compounds when applied through spot infiltration, a needleless method to introduce exogenous agents into plant cells. Initially, various concentrations of analytical grade (98%+pure) IAA, 2,4-D, and dicamba were prepared as solutions that were applied directly to uni-foliate leaves of 9 day old soybean seedlings by spot infiltration in order to determine the range of auxinic response and severity.
Spot infiltration comprises applying a compound to be tested in composition that is applied to the surface of a plant, for example, to a leaf or other plant structure. For example, a method for testing a plant response to one or more compounds using spot infiltration comprises a) providing a composition comprising one or more compounds to be tested in a container having at least an opening for the compound enter and/or exit, and one or more elements for moving the composition into or out of the container; b) contacting at least one opening of the container with the surface of a plant and moving the composition comprising one or more compounds to at least the surface of the plant. A container and elements for moving the composition may comprise a syringe body and plunger. Moving the composition to the plant surface comprises contacting the surface with pressure sufficient for the composition to enter the cells of the plant. In an aspect, spot filtration testing comprises measuring an effect of the composition on the contacted plant and comparing that measure or effect to a plant that is not contacted with the composition.
Plant response phenotypes were documented at one day post-spot infiltration and subsequently every other day, up to nine days post treatment. […] In the studies described herein below, 5 replicate treatments for each conjugate form were conducted, along with appropriate negative controls.
(§1) Examples 9 and 10 utilized a spot infiltration method for the delivery of an herbicide directly to leaves of a plant. The method generally allows for the directed delivery of a variety of agents to a localized area of a plant, e.g. localized region of leaves, for screening or assessment purposes, e.g. to quickly assess the response of a plant to the agent. As used in the foregoing examples, the spot infiltration method was used to introduce specific herbicides or specific conjugates of the herbicides to seedling plant leaves. Following introduction of the herbicide or the appropriate conjugate, plants were observed daily for nine days for characteristics of epinasty, trifoliate leaf curly, chlorosis, and new growth recovery.
(§2) Briefly, a solution of the desired agent is prepared of the desired agent, e.g. as described above in Example 10, solutions (5% EtOH) of 1, 2.5 and 5 mM IAA. The solution is then drawn into a 1 mL BD™ slip-tip syringe, bulk, non-sterile syringe (e.g. Becton, Dickinson and Company, Product No. 301025) with 100 μL markings. The desired volume is then applied to the leaf, e.g. as described in Examples 9 and 10, with the tip of the syring against the leaf and positive pressure applied to the syringe plunger. Sufficient pressure is applied in order to infuse the area beneath the syringe opening, but not so much pressure as to cause a visible-to-the-eye puncture or hole to form in the leaf. Some run-off of solution around the syringe opening is expected. In the foregoing examples, two spots were applied to each of two leaves per seedling for soybean plants. […] In soybean, both spots per leaf were at the distal portion of the leaf about 1-2 cm apart. When the method was applied to Arabidopsis, two developmentally intermediate aged leaves were chosen per plant, and one spot infiltration was carried out per leaf.

[3] = test system: Arabidopsis ecotype Col-0 plant; assay: Arabidopsis response to spot infiltrated auxins and conjugates; format: in vivo, Arabidopsis thaliana; details: 50, 150, and 500 μM; result in words
Description: The effect of auxin conjugates was assessed using Arabidoposis (Arabidopsis thialiana) ecotype Col-0 plant. Prior to studies utilizing the auxin conjugates, levels of analytical grade (98%+pure) IAA, 2,4-D and dicamba in solution were applied at various concentrations directly to developmentally similar leaves of 20-23 day old Arabidopsis seedlings by needleless syringe spot infiltration methodology, in order to determine range of auxinic response and severity. Phenotypes were documented relative to control at 1 day post-spot infiltration and subsequently every other day, up to nine days post treatment. Three concentrations were chosen based on reproducibility, and conjugated forms were then studied with 4 or more replicate treatments for each, along with appropriate negative controls (H2O and 10% EtOH).
as §1, §2
Generally, for Arabidopsis, the two leaves were chosen from opposite sides of rosette. In general, the spot infiltration method is carried out on younger plants in order to minimize experimental footprint and to maintain developmental uniformity. However, the method is not limited to use on young plants and can be easily applied to older plants as determined by the goals of a particular experiment.

O=C(O)COc1ccc(Cl)cc1Cl [2,4-D, 2,4-dichlorophenoxyacetic acid]
Percentage of the average root length compared with 0 nM 2,4-D treatment ([1]; 10 nM 2,4-D): 77% | Percentage of the average root length compared with 0 nM 2,4-D treatment ([1]; 100 nM 2,4-D): 58% | 1st trifoliate leaf curl ([2]; 100 μM): 0 | 1st trifoliate leaf curl ([2]; 250 μM): 0 | 1st trifoliate leaf curl ([2]; 500 μM): 0 | Plant response phenotype, soybean ([2]; 100, 250 & 500 μM, result in words): increased auxinic response ranging from mild to extreme epinasty | Phenotype, Arabidopsis [3]: increased auxinic response ranging from mild to more extreme epinasty
